According to patent US20180220653A1, “Methods for Identifying Compounds that Directly Bind to Insect Transient Receptor Potential Channels” (priority 2015, published 2018):
Where two headings read alike, the source gives them in different places.

Key:
[1] = system: American grasshoppers (Schistocerca americana); assay: Leg extension assay in American grasshoppers; type: in vivo; details: injection, 10 mM in 100% DMSO, 3 μl per animal; assessed 40-60 minutes post-injection
Experimental: American grasshoppers (Schistocerca americana) were obtained from Dr. Hojun Song (University of Central Florida). Test compounds (10 mM in 100% DMSO), or vehicle (100% DMSO) were applied by injection through the abdominal intersegmental cuticle (3 μl per animal), using Hamilton syringe. The effects of compounds were assessed 40-60 minutes post-injection.

[2] = target: mouse TRPV channel, mTRPV4 (Mus musculus, UniProt Q9EPK8); assay: Calcium response in CHO cells expressing mTRPV4; type: cell-based; details: CHO cells transduced with mTRPV4 adenovirus; FIG. 6
Nan = type: binding, Drosophila; details: for displacement of [3H]-afidopyropen from Nan-only sites: Ki not accurately determined, curves did not reach bottom plateaus
[3] = target: T1, insect TRPV channels, Nan and Iav (Drosophila melanogaster, UniProt M9PI57+Q9W3W0); details: for EC50: read-out: half-maximal effective concentrations (EC50), calcium mobilization, CHO cells co-expressing Nan and Iav, FIG. 5
T1 sequence (M9PI57 1-834): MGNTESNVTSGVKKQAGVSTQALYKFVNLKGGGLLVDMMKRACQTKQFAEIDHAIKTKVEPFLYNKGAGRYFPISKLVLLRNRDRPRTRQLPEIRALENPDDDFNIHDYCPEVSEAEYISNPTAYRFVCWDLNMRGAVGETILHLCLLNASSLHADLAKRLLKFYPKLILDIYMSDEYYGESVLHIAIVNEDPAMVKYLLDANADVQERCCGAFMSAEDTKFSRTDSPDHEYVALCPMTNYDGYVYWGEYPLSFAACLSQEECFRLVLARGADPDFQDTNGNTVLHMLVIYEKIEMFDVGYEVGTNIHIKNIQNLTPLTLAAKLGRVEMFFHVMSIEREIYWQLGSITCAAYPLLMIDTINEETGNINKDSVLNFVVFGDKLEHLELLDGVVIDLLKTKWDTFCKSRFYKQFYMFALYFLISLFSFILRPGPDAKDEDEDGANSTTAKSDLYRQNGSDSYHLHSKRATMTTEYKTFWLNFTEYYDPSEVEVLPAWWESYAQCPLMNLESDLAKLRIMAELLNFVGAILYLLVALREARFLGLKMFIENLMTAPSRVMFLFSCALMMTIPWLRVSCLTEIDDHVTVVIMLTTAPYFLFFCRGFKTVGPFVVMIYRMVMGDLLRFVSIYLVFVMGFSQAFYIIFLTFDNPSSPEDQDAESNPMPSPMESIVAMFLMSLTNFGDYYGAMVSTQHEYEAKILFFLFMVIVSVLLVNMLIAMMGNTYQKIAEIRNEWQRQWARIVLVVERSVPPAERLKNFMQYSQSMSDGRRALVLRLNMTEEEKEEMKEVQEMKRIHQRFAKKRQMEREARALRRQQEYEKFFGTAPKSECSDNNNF
T1 sequence (Q9W3W0 1-1123): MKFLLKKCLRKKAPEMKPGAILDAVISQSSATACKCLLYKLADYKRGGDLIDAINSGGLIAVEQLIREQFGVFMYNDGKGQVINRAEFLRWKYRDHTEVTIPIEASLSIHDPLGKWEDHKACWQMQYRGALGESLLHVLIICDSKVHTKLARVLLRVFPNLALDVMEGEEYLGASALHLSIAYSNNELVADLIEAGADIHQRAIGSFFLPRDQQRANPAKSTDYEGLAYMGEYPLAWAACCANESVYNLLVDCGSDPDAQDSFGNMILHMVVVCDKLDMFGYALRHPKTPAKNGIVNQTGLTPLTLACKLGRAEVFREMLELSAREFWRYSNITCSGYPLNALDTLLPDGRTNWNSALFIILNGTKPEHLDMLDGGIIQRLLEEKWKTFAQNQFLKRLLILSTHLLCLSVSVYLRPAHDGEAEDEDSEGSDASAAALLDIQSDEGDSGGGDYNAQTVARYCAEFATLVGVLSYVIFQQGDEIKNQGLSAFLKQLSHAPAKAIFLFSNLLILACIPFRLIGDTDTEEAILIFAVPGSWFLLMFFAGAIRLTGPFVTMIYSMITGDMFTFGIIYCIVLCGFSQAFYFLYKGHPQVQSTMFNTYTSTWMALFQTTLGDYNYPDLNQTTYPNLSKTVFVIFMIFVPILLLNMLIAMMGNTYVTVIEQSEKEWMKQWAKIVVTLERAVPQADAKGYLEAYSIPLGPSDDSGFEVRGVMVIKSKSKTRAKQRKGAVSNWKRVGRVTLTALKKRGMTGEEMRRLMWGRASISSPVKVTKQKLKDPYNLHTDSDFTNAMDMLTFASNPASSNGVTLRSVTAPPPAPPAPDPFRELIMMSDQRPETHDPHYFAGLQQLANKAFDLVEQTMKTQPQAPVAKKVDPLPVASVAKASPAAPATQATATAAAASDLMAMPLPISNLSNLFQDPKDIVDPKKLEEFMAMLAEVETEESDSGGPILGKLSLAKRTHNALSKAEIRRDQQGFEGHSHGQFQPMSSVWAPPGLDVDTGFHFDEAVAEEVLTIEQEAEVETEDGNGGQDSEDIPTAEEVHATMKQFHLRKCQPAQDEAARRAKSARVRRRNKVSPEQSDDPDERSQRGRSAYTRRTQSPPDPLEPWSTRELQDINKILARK

[4] = target: T1, insect TRPV channels, Nan and Iav
[5] = system: Nan and Iav from pea aphid; assay: Two-electrode voltage clamp in Xenopus laevis oocytes injected with Nan and Iav mRNA; type: cell-based, Acyrthosiphon pisum; details: 10 uM dPFQ; oocytes with Nan+Iav vs Nan or Iav alone; FIG. 4a
[6] = Solubility observed in competition binding assay; details: at high concentrations, binding buffer
[7] = system: locusts (Locusta migratoria); details: injection, Ausborn et al., 2005; cited from earlier work
[8] = target: T1, insect TRPV channels, Nan and Iav; assay: cell-based
[9] = Nan+Iav cells vs parental cells and cells expressing Nan or Iav alone, FIG. 3
[10] = Nan+Iav cells vs parental cells and cells expressing Nan or Iav alone, FIG. 4

Sequence of mouse TRPV channel, mTRPV4 (Q9EPK8 whole entry): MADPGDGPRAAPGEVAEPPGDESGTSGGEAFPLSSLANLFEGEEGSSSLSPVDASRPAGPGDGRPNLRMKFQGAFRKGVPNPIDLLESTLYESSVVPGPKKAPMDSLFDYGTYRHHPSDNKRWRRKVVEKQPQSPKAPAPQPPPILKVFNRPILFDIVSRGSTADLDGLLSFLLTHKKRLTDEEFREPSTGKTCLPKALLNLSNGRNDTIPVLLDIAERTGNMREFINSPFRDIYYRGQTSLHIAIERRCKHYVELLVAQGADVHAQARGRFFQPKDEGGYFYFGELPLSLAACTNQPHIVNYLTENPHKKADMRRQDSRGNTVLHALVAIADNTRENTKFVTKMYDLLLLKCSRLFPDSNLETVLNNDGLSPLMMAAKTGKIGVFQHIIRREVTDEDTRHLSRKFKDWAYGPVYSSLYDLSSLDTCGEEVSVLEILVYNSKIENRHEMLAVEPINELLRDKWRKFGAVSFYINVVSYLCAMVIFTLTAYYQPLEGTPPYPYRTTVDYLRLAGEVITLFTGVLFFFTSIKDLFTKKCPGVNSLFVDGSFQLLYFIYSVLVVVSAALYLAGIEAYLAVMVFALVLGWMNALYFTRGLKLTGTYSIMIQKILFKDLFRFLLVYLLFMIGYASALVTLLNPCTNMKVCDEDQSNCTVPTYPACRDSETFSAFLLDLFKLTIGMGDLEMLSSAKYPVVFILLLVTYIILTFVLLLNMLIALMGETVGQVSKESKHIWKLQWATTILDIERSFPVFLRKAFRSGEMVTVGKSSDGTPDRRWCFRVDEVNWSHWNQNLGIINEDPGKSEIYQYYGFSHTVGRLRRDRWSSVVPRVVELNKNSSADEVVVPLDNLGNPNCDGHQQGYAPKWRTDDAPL

C[C@]1(COC(=O)C2CC2)[C@@H]2C[C@H](O)[C@@]3(C)Oc4cc(-c5cccnc5)oc(=O)c4[C@H](O)[C@@H]3[C@@]2(C)CC[C@@H]1OC(=O)C1CC1 [afidopyropen]
hind leg extension [1]: elicited hind leg extension
calcium response / activation of mTRPV4 [2]: failed to activate
Ki (Nan; Nan-only expressing membranes, FIG. 9B, read-out: Ki, displacement assay): 3.1 nM
calcium mobilization response [3, 9]: only in cells co-infected with Nan and Iav viruses
EC50 [3]: 1 nM
membrane depolarization response [4, 10]: only in cells co-infected with Nan and Iav viruses

CC(C)C[C@H](NC(=O)c1cc2ccccc2s1)C(=O)N1CCN(C(=O)[C@H](CO)NS(=O)(=O)c2ccc(Cl)cc2Cl)CC1 [GSK1016790A, N-((1S)-1-{[4-((2S)-2-{[(2,4-dichlorophenyl)sulfonyl]amino}-3-hydroxypropanoyl)-1-piperazinyl]carbonyl}-3-methylbutyl)-1-benzothiophene-2-carboxamide]
calcium response / activation of mTRPV4 [2]: evoked strong calcium response

O=C1Nc2ccc(C(F)(C(F)(F)F)C(F)(F)F)cc2CN1NCc1cccnc1 [N-deacetylated pyrifluquinazon]
inward and outward current responses [5]: evoked both inward and outward current responses only in oocytes expressing both Nan and Iav
displacement of [3H]-afidopyropen from Nan-only sites (Nan): clearly displaced
calcium mobilization response [3, 9]: only in cells co-infected with Nan and Iav viruses
EC50 [3]: 64 nM
membrane depolarization response [4, 10]: only in cells co-infected with Nan and Iav viruses
solubility [6]: poor solubility

CC1=NNC(=O)N(/N=C/c2cccnc2)C1 [pymetrozine]
hind leg extension [1]: Elicit Characteristic Hind Leg Extension
displacement of [3H]-afidopyropen from Nan-only sites (Nan): clearly displaced
calcium mobilization response [3]: only in cells co-infected with Nan and Iav viruses
membrane depolarization response [4]: only in cells co-infected with Nan and Iav viruses
hind leg extension [7]: produce characteristic hind leg extension
EC50 [8]: 51 nM
solubility [6]: poor solubility
